Some results are limits rather than exact numbers.

This experiment deals with T1, PARP7 (Homo sapiens, UniProt Q7Z3E1).
T1 sequence (Q7Z3E1 1-657): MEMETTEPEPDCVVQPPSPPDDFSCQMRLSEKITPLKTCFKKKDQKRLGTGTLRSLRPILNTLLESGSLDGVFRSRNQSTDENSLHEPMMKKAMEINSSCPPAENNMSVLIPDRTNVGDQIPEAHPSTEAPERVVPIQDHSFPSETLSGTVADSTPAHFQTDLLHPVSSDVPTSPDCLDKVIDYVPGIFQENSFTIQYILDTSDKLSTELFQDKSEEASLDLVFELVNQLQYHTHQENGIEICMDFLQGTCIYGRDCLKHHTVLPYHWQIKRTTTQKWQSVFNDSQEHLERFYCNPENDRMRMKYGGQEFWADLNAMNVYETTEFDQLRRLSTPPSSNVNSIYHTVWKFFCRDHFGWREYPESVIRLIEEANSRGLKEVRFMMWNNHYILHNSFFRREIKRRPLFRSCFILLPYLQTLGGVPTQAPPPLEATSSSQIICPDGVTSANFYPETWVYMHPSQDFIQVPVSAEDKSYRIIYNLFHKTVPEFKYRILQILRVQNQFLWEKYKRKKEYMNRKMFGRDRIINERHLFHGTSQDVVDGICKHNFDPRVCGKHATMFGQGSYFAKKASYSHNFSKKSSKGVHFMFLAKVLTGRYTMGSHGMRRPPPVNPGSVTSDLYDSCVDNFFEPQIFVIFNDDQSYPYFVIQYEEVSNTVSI
Description: PARP7 TR-FRET assay (binding, displacement of biotinylated Probe A). The conditions noted are these: 6 nM PARP7, 2 nM Probe A, 25° C., 30 min. How it is done:
Biological Assay Example A: PARP7 TR-FRET Assay
A time-resolved fluorescence energy transfer (TR-FRET) assay was used to test binding activity of compounds to PARP7. Two microliter test compound was added in 384-well plate. Reactions were performed in a 6 uL volume by adding 4 uL mixture of PARP7 and Probe A (a biotinylated probe binding to the PARP7: N-(6-(2-(4-((2-(6-oxo-5-(trifluoromethyl)-1,6-dihydropyridazin-4-yl) isoindolin-5-yl) oxy) piperidin-1-yl) acetamido) hexyl)-5-((3aS,4S,6aR)-2-oxohexahydro-1H-thieno [3,4-d]imidazol-4-yl) pentanamide, made as reported in WO2019212937A1) in assay buffer (20 mM HEPES pH 8.0, 100 mM NaCl, 0.1% BSA, 2 mM DTT and 0.002% Tween20). The final concentration of PARP7 and Probe A were 6 nM and 2 nM, incubating with test compounds at 25° C. for 30 min. Four microliter ULight-anti 6xHis and LANCE Eu-W1024 labeled streptavidin (PerkinElmer) were added with the final concentration of ULight-anti 6xHis and LANCE Eu-W1024 at 4 nM and 0.25 nM. The reaction mixture was incubated at 25° C. for 30 min. The plate was read on a Tecan Spark plate reader (excitation wavelength at 320 nm, emission wavelength at 615 nm and 665 nm with a 90 us delay. The ratio of the 665/615 nm emission was calculated for each well to the amount of complex of PARP7 and Probe A in each well was calculated. The 0.25% DMSO vehicle was used as control and no PARP7 well was as blank well. Inhibition rate is calculated with the formula of % inhibition=100-100*(TRFcmpd-TRFblank)/(TRFcontrol−TRFblank). Inhibition IC50 is calculated with the equation of Y=Bottom+ (Top-Bottom)/(1+10^((LogIC50−X) *Hill Slope))
As a reminder, the IC50 is the concentration that gives 50% inhibition. The low end stands for higher potency, the high end for lower potency. `N#Cc1ccc2c(c1)N(c1cc(C(F)(F)F)c(=O)[nH]n1)CC(CC(=O)N1CCN(c3ncc(C(F)(F)F)cn3)CC1)O2` (single isomer, unassigned) [Compound 200] had a concentration for half-maximal inhibition (IC50) below 100 nM.
Under `N#Cc1ccc(N2CCN(C(=O)CC3CN(c4cc(C(F)(F)F)c(=O)[nH]n4)c4cc(Cl)ccc4O3)CC2)nc1` (single isomer, unassigned) [Compound 224] stands below 100 nM; under `O=C(CC1CN(c2n[nH]c(=O)c3cc(Cl)cc(F)c23)CCO1)N1CCN(c2ncc(C(F)(F)F)cn2)CC1` (single isomer, unassigned) [Compound 240], 100 to 1000 nM; under `O=C(CO[C@H]1C[C@H](CC2CC2)Oc2c1n[nH]c(=O)c2C(F)(F)F)N1CCN(c2ncc(C(F)(F)F)cn2)CC1` (stereo in doubt) [Compound 184], above 1000 nM.
Under `O=C(c1cccc(Oc2n[nH]c(=O)c(C(F)(F)F)c2N2CC3(CCC3)C2)c1)N1CCN(c2ncc(C(F)(F)F)cn2)CC1` [Compound 70] stands below 100 nM; under `O=C(c1cccc(Oc2n[nH]c(=O)c(C(F)(F)F)c2N2CC(F)C2)c1)N1CCN(c2ncc(C(F)(F)F)cn2)CC1` [Compound 85], below 100 nM.
Under `N#Cc1ccc(N2CCN(C(=O)CC3CN(c4cc(C(F)(F)F)c(=O)[nH]n4)c4cc(F)ccc4O3)CC2)nc1` (single isomer, unassigned) [Compound 269] stands 100 to 1000 nM; under `O=C(c1cncc(Oc2n[nH]c(=O)c(C(F)(F)F)c2N2CC3(C2)CC(F)(F)C3)c1)N1CCN(c2cnc(C(F)(F)F)cn2)CC1` [Compound 334], below 100 nM; under `N#Cc1ccc(N2CCN(C(=O)CC3CN(c4cc(C(F)(F)F)c(=O)[nH]n4)c4cc(C#N)ccc4O3)CC2)nc1` (single isomer, unassigned) [Compound 230], 100 to 1000 nM.
Compound `O=C(c1cccc(Oc2n[nH]c(=O)c(C(F)(F)F)c2N2CC3CC3C2)c1)N1CCN(c2ncc(C(F)(F)F)cn2)CC1` (centres unmarked) [Compound 68] showed an IC50 below 100 nM.
Regarding `Cc1ccc(Oc2n[nH]c(=O)c(C(F)(F)F)c2C)cc1C(=O)N1CCN(c2ncc(C(F)(F)F)cn2)CC1` [Compound 65], the IC50 is below 100 nM.
The value for `O=C([C@H]1CN(c2cc(C(F)(F)F)c(=O)[nH]n2)CCO1)N1CCN(c2ncc(C(F)(F)F)cn2)CC1` [Compound 33] was 100 to 1000 nM; that for `O=C(C[C@@H]1CCCN1c1n[nH]c(=O)c2ccccc12)N1CCN(c2ncc(C(F)(F)F)cn2)CC1` [Compound 47] was above 1000 nM.
The value for `O=C(CC1CN(c2n[nH]c(=O)c3cc(OCC(F)F)ccc23)CCO1)N1CCN(c2ncc(C(F)(F)F)cn2)CC1` (single isomer, unassigned) [Compound 208] was above 1000 nM; that for `O=C(CC1CN(c2n[nH]c(=O)c3cc(F)ccc23)CCO1)N1CCN(c2ncc(C(F)(F)F)cn2)CC1` (single isomer, unassigned) [Compound 49] was 100 to 1000 nM.
Turning to `O=C(c1cncc(Oc2n[nH]c(=O)c(C(F)(F)F)c2N2CC3(C2)CC(F)(F)C3)c1)N1CCN(c2ncc(C3CC3)cn2)CC1` [Compound 313], the IC50 was below 100 nM.
The value for `N#Cc1ccc(N2CCN(C(=O)c3cc(Oc4n[nH]c(=O)c(C(F)(F)F)c4N4CC5(C4)CC(F)(F)C5)ccn3)CC2)nc1` [Compound 306] was below 100 nM; that for `O=C(CC1CN(c2cc(C(F)(F)F)c(=O)[nH]n2)c2ccccc2O1)N1CCN(c2ncc(C(F)F)cn2)CC1` (single isomer, unassigned) [Compound 248] was below 100 nM.
The value for `N#Cc1ccc(N2CCN(C(=O)c3cc(Oc4n[nH]c(=O)c(C(F)(F)F)c4N4CC5(CCC5)C4)ccn3)CC2)nc1` [Compound 274] was below 100 nM; that for `C[C@@H]1C[C@@H](OCC(=O)N2CCN(c3ncc(C(F)(F)F)cn3)CC2)c2n[nH]c(=O)c(C(F)(F)F)c2O1` [Compound 56] was below 100 nM; that for `O=C(CC1CN(c2cc(C(F)(F)F)c(=O)[nH]n2)CCC1(F)F)N1CCN(c2ncc(C(F)(F)F)cn2)CC1` (single isomer, unassigned) [Compound 80] was below 100 nM.
In turn, `Cc1c(Oc2cc(Cl)cc(C(=O)N3CCN(c4ncc(C(F)(F)F)cn4)CC3)c2)n[nH]c(=O)c1C(F)(F)F` [Compound 22] returned a half-maximal inhibitory concentration (IC50) of 100 to 1000 nM.
The value for `C#Cc1cnc(N2CCN(C(=O)CC3CN(c4cc(C(F)(F)F)c(=O)[nH]n4)c4cc(C#N)ccc4O3)CC2)nc1` (single isomer, unassigned) [Compound 235] was below 100 nM.
The value for `CC(C)(O)c1cnc(N2CCN(C(=O)CC3CN(c4cc(C(F)(F)F)c(=O)[nH]n4)c4cc(Cl)ccc4O3)CC2)nc1` (single isomer, unassigned) [Compound 151] was below 100 nM.
Under `O=C(CC1CN(c2n[nH]c(=O)c3cccnc23)CCO1)N1CCN(c2ncc(C(F)(F)F)cn2)CC1` (single isomer, unassigned) [Compound 104] stands below 100 nM; under `C[C@@H]1CN(c2n[nH]c(=O)c3cccc(F)c23)C[C@@H](CC(=O)N2CCN(c3ncc(C(F)(F)F)cn3)CC2)O1` (stereo in doubt) [Compound 90], 100 to 1000 nM.
`COC[C@H]1C[C@@H]1Nc1c(Oc2cccc(C(=O)N3CCN(c4ncc(C(F)(F)F)cn4)CC3)c2)n[nH]c(=O)c1C(F)(F)F` [Compound 198] gave an IC50 below 100 nM.
`O=C(OC1CN(c2cc(C(F)(F)F)c(=O)[nH]n2)CCC1(F)F)N1CCN(c2ncc(C(F)(F)F)cn2)CC1` (single isomer, unassigned) [Compound 117] showed an IC50 above 1000 nM.
Under `Cc1c(Oc2cccc(C(=O)N3CC[C@@H](Oc4ncc(C(F)(F)F)cn4)C3)c2)n[nH]c(=O)c1C(F)(F)F` [Compound 29] stands above 1000 nM; under `C#Cc1c(C)c(N2CCOC(CC(=O)N3CCN(c4ncc(C(F)(F)F)cn4)CC3)C2)n[nH]c1=O` (single isomer, unassigned) [Compound 113], 100 to 1000 nM; under `C[C@@H]1CN(C(=O)c2cc(Oc3n[nH]c(=O)c(C(F)(F)F)c3N3CC4(C3)CC(F)(F)C4)ccn2)CCN1c1ncc(C(F)(F)F)cn1` [Compound 318], below 100 nM.
As for `O=C(c1cncc(Oc2n[nH]c(=O)c(C(F)(F)F)c2N2CC3(CCC3)C2)c1)N1CCN(c2ncc(C(F)(F)F)cn2)CC1` [Compound 84], the IC50 is below 100 nM.
The value for `O=C(CC1CN(c2n[nH]c(=O)c3c(F)cccc23)CCO1)N1CCN(c2ncc(C(F)(F)F)cn2)CC1` (single isomer, unassigned) [Compound 109] was below 100 nM.
Under `O=C(COC1CCOc2c1n[nH]c(=O)c2C(F)(F)F)N1CCN(c2ncc(C(F)(F)F)cn2)CC1` (single isomer, unassigned) [Compound 11] stands above 1000 nM.
Under `C#Cc1ccc2c(N3CCOC(CC(=O)N4CCN(c5ncc(C(F)(F)F)cn5)CC4)C3)n[nH]c(=O)c2c1` (single isomer, unassigned) [Compound 197] stands below 100 nM.
Take `O=C(c1cccc(Oc2n[nH]c(=O)c(C(F)(F)F)c2N2CC3(CCC3)C2)c1)N1CCN(c2ccc(Cl)cn2)CC1` [Compound 182]: the IC50 was below 100 nM.
Under `O=C(CC[C@@H]1CCCN1c1n[nH]c(=O)c2c(F)cccc12)N1CCN(c2ncc(C(F)(F)F)cn2)CC1` [Compound 97] stands below 100 nM; under `O=C(c1ccc2c(c1)N(c1cc(C(F)(F)F)c(=O)[nH]n1)CCO2)N1CCN(c2ncc(C(F)(F)F)cn2)CC1` [Compound 30], 100 to 1000 nM; under `N#CC1(c2ccc3c(c2)N(c2cc(C(F)(F)F)c(=O)[nH]n2)CC(CC(=O)N2CCN(c4ncc(C(F)(F)F)cn4)CC2)O3)CC1` (single isomer, unassigned) [Compound 338], below 100 nM.
The value for `CNc1c(Oc2cccc(C(=O)N3CCN(c4ncc(C(F)(F)F)cn4)CC3)c2)n[nH]c(=O)c1C(C)=O` [Compound 74] was above 1000 nM.
`O=C(c1cccc(Oc2n[nH]c(=O)c(C(F)(F)F)c2NC2CC(F)(F)C2)c1)N1CCN(c2ncc(C(F)(F)F)cn2)CC1` [Compound 167]: the IC50 is below 100 nM.

For the origin of these results see patent publication US20240343727A1, “PYRIDAZINONE OR PYRIDINONE COMPOUNDS, PREPARATION METHODS AND USES THEREOF” (InventisBio Co., Ltd., priority 2021, published 2024).
